IC50 data for 55 compounds are collected here from patent publication US20240400560A1, “BICYCLIC HETEROCYCLIC DERIVATIVE HAVING VIRAL GROWTH INHIBITORY ACTIVITY AND PHARMACEUTICAL COMPOSITION CONTAINING SAME” (Shionogi & Co., Ltd., priority 2021, published 2024).

Structures are written as SMILES.

In the experiment the target is SARS-CoV-2 3CL protease (Severe acute respiratory syndrome coronavirus 2, UniProt P0DTD1). In words: Inhibitory activity test against SARS-CoV-2 3CL proteases. In kind it is biochemical. The note with it: read-out: IC50 (50% SARS-CoV-2 3CL protease inhibitory concentration).
With `COc1cc(-c2nc3[nH]c(=O)[nH]c3cc2Cl)cc2c1c(=O)n(Cc1ncn(C)n1)c(=O)n2Cc1cc(F)c(F)c(F)c1` [Compound I-0001], the IC50 stood at 5.3 nM.

For the compound `Cn1cnc(Cn2c(=O)c3c(F)cc(-c4cc5c(cc4Cl)NC(=O)C5)c(F)c3n(Cc3cc(F)c(F)c(F)c3)c2=O)n1` [Compound I-0002], the IC50 stood at 6.2 nM.

For `COc1cc(-c2nc3c(cc2Cl)NC(=O)C3)cc2c1c(=O)n(Cc1ncn(C)n1)c(=O)n2Cc1cc(F)c(F)c(F)c1` [Compound I-0005], the IC50 came to 10 nM.

Take `Cn1cnc(Cn2c(=O)c3c(F)cc(-c4cc5cn[nH]c5cc4Cl)c(F)c3n(Cc3cc(F)c(F)c(F)c3)c2=O)n1` [Compound I-0006]: the IC50 was less than 100 nM.

Turning to `Cn1cnc(Cn2c(=O)c3c(F)cc(-c4nc5c(cc4Cl)NC(=O)C54CC4)cc3n(Cc3cc(F)c(F)c(F)c3)c2=O)n1` [Compound I-0008], the IC50 was found to be 21 nM.

For the compound `Cn1cnc(Cn2c(=O)c3c(F)cc(-c4nc5c(cc4Cl)NC(=O)C5)cc3n(Cc3cc(F)c(F)c(F)c3)c2=O)n1` [Compound I-0009], the IC50 was 21 nM.

Regarding `Cc1cncc(-n2c(=O)c3c(Cl)cc(-c4cc(C#N)ccc4Cl)cc3n(Cc3cc(F)c(F)c(F)c3)c2=O)c1` [Compound I-0012], the IC50 is less than 100 nM.

As for `Cc1cncc(-n2c(=O)c3c(Cl)cc(-c4cc(CO)ccc4Cl)cc3n(Cc3ccc(F)c(C#N)c3)c2=O)c1` [Compound I-0014], the IC50 was 30 nM.

Take `Cc1cncc(-n2c(=O)c3c(Cl)cc(-c4cc(CO)ccc4Cl)cc3n(Cc3cc(F)c(F)c(F)c3)c2=O)c1` [Compound I-0016]: the IC50 was less than 100 nM.

On to `COc1cc(-c2cc(C#N)ccc2Cl)cc2c1c(=O)n(-c1cncc(C)c1)c(=O)n2Cc1cc(F)c(F)c(F)c1` [Compound I-0026], for which the IC50 turned out to be 6.5 nM.

Turning to `COc1cc(-c2cc(CO)ccc2Cl)cc2c1c(=O)n(-c1cncc(C)c1)c(=O)n2Cc1cc(F)c(F)c(F)c1` [Compound I-0030], the IC50 is 8.5 nM.

Take `COc1nc(-c2cc3c(cc2Cl)NC(=O)C3)cc2c1c(=O)n(Cc1ncn(C)n1)c(=O)n2Cc1cc(F)c(F)c(F)c1` [Compound I-0032]: the IC50 was determined as 9.4 nM.

For the compound `Cc1cncc(-n2c(=O)c3c(F)cc(-c4cc(C#N)ccc4Cl)cc3n(Cc3ccc(F)c(C#N)c3)c2=O)c1` [Compound I-0050], the IC50 is less than 100 nM.

With `COc1cc(-c2cc3c(cc2Cl)NC(=O)C3)cc2c1c(=O)n(-c1cncc(C)c1)c(=O)n2Cc1ccc(F)c(C#N)c1` [Compound I-0060], the IC50 is 2.7 nM.

Take `COc1cc(-c2cc(C(C)(C)O)ccc2Cl)cc2c1c(=O)n(-c1cncc(C)c1)c(=O)n2Cc1ccc(F)c(C#N)c1` [Compound I-0061]: the IC50 was 2.9 nM.

Consider `COc1cc(-c2cc(C(C)=O)ccc2Cl)cc2c1c(=O)n(-c1cncc(C)c1)c(=O)n2Cc1ccc(F)c(C#N)c1` [Compound I-0062], for which the IC50 stood at 3.1 nM.

As for `COc1cc(-c2c(Cl)ccc3ncccc23)cc2c1c(=O)n(-c1cncc(C)c1)c(=O)n2Cc1ccc(F)c(C#N)c1` [Compound I-0068], the IC50 stood at 5.8 nM.

As to `COc1cc(-c2cc(C(C)(C)O)ccc2Cl)cc2c1c(=O)n(-c1cncc(C)c1)c(=O)n2Cc1cc(F)c(F)c(F)c1` [Compound I-0069], the IC50 was 6 nM.

In the case of `COc1cc(-c2cc(NS(C)(=O)=O)ccc2Cl)cc2c1c(=O)n(-c1cncc(C)c1)c(=O)n2Cc1cc(F)c(F)c(F)c1` [Compound I-0070], the IC50 worked out at 9.8 nM.

On to `O=C1Cc2cc(-c3cc(F)c4c(=O)n(-c5cncc(Cl)c5)c(=O)n(Cc5cc(F)c(F)c(F)c5)c4c3)c(Cl)cc2N1` [Compound I-0071], for which the IC50 is less than 100 nM.

Turning to `COc1cc(-c2cc(C(C)(C)O)ccc2Cl)cc2c1c(=O)n(-c1cncc(Cl)c1)c(=O)n2Cc1cc(F)c(F)c(F)c1` [Compound I-0075], the IC50 was determined as 18 nM.

`O=C1Cc2cc(-c3cc(F)c4c(=O)n(-c5cncc(Cl)c5)c(=O)n(Cc5cc(Cl)c(F)cn5)c4c3)c(Cl)cc2N1` [Compound I-0077]: the IC50 was less than 100 nM.

As for `COc1cc(-c2nc(NS(C)(=O)=O)ccc2Cl)cc2c1c(=O)n(-c1cncc(C)c1)c(=O)n2Cc1cc(F)c(F)c(F)c1` [Compound I-0078], the IC50 was less than 100 nM.

Take `COc1cc(-c2cc(NS(C)(=O)=O)ccc2Cl)cc2c1c(=O)n(-c1cncc(Cl)c1)c(=O)n2Cc1cc(F)c(F)c(F)c1` [Compound I-0079]: the IC50 was less than 100 nM.

Turning to `Cn1cnc(Cn2c(=O)c3c(F)cc(-c4cc(-c5nnc(N)o5)ccc4Cl)cc3n(Cc3cc(F)c(F)c(F)c3)c2=O)n1` [Compound I-0080], the IC50 turned out to be 34 nM.

As for `COc1cc(-c2cc3c[nH]nc3cc2Cl)cc2c1c(=O)n(Cc1ncn(C)n1)c(=O)n2Cc1cc(F)c(F)c(F)c1` [Compound I-0115], the IC50 worked out at 9.3 nM.

Consider `Cn1cnc(Cn2c(=O)c3c(Cl)cc(-c4cc5c(cc4Cl)NC(=O)C5)cc3n(Cc3cc(Cl)c(F)cn3)c2=O)n1` [Compound I-0117], for which the IC50 was less than 100 nM.

As for `COc1cc(-c2cc(S(N)(=O)=O)ccc2Cl)cc2c1c(=O)n(Cc1ncn(C)n1)c(=O)n2Cc1cc(F)c(F)c(F)c1` [Compound I-0118], the IC50 was less than 100 nM.

Take `Cn1cnc(Cn2c(=O)c3c(F)cc(-c4cc5c(cc4Cl)NC(=O)C54CC4)cc3n(Cc3cc(F)c(F)c(F)c3)c2=O)n1` [Compound I-0119]: the IC50 is 23 nM.

For `COc1cc(-c2cc(-c3ncc[nH]3)ccc2Cl)cc2c1c(=O)n(-c1cncc(Cl)c1)c(=O)n2Cc1ccc(F)c(C#N)c1` [Compound I-0120], the IC50 is less than 100 nM.

As for `Cn1cnc(Cn2c(=O)c3ncc(-c4cc5c(cc4Cl)NC(=O)C5)cc3n(Cc3cc(F)c(F)c(Cl)c3)c2=O)n1` [Compound I-0121], the IC50 is less than 100 nM.

`COc1cc(-c2cc(S(C)(=O)=O)ccc2Cl)cc2c1c(=O)n(Cc1ncn(C)n1)c(=O)n2Cc1cc(F)c(F)c(F)c1` [Compound I-0122]: the IC50 was 27 nM.

As to `COc1cc(-c2cc(-c3ncc[nH]3)ccc2Cl)cc2c1c(=O)n(Cc1ncn(C)n1)c(=O)n2Cc1cc(F)c(F)c(F)c1` [Compound I-0123], the IC50 was less than 100 nM.

Take `COc1cc(-c2c(Cl)ccc3ncccc23)cc2c1c(=O)n(Cc1ncn(C)n1)c(=O)n2Cc1cc(F)c(F)c(F)c1` [Compound I-0124]: the IC50 is less than 100 nM.

For `COc1cc(-c2cc3c(cc2Cl)NC(=O)CC3)cc2c1c(=O)n(Cc1ncn(C)n1)c(=O)n2Cc1cc(F)c(F)c(F)c1` [Compound I-0125], the IC50 turned out to be 32 nM.

On to `COc1cc(-c2cc(NS(C)(=O)=O)ccc2Cl)cc2c1c(=O)n(Cc1ncn(C)n1)c(=O)n2Cc1cc(F)c(F)c(F)c1` [Compound I-0136], for which the IC50 was less than 100 nM.

`O=c1[nH]cccc1Cn1c(=O)c2ccc(N3C[C@H]4C[C@@H]3CN4)cc2n(Cc2cc(F)c(F)c(F)c2)c1=O` [Compound I-0140]: the IC50 stood at 1.3 nM.

As to `O=c1[nH]cccc1Cn1c(=O)c2ccc(N3C[C@@H]4C[C@H]3CN4)cc2n(Cc2cc(F)c(F)c(F)c2)c1=O` [Compound I-0141], the IC50 is less than 100 nM.

Take `NC1CCN(c2ccc3c(=O)n(Cc4ccc[nH]c4=O)c(=O)n(Cc4cc(F)c(F)c(F)c4)c3c2)C1` (stereo not shown) [Compound I-0142]: the IC50 is 25 nM.

With `COc1cc(-c2cc3c(cc2Cl)NC(=O)C3)cc2c1c(=O)n(-c1cncc(C)c1)c(=O)n2Cc1cc(F)c(F)c(C#N)c1` [Compound I-0161], the IC50 is 0.75 nM.

Turning to `Cn1cnc(Cn2c(=O)c3c(=O)n(C)c(-c4cc(C#N)ccc4Cl)cc3n(Cc3cc(F)c(F)c(Cl)c3)c2=O)n1` [Compound I-0162], the IC50 amounted to 0.8 nM.

Turning to `COc1cc(-c2cc(C#N)ccc2Cl)cc2c1c(=O)n(-c1cncc(C)c1)c(=O)n2Cc1cc(F)c(F)c(C#N)c1` [Compound I-0165], the IC50 is 1.2 nM.

On to `Cn1cnc(Cn2c(=O)c3c(=O)n(C)c(-c4cc(C#N)ccc4Cl)cc3n(Cc3cc(F)c(F)c(F)c3)c2=O)n1` [Compound I-0169], for which the IC50 amounted to 2.7 nM.

Turning to `Cn1cnc(Cn2c(=O)c3c(Cl)cc(-c4cc5c(cc4Cl)NC(=O)C5)cc3n(Cc3cc(F)c(F)c(Cl)c3)c2=O)n1` [Compound I-0171], the IC50 turned out to be 3.2 nM.

In the case of `Cn1cnc(Cn2c(=O)c3c(=O)[nH]c(-c4cc(C#N)ccc4Cl)cc3n(Cc3cc(F)c(F)c(Cl)c3)c2=O)n1` [Compound I-0172], the IC50 is less than 100 nM.

For the compound `Cn1cnc(Cn2c(=O)c3c(Cl)cc(-c4cc5cn[nH]c5cc4Cl)cc3n(Cc3cc(F)c(F)c(Cl)c3)c2=O)n1` [Compound I-0173], the IC50 was less than 100 nM.

Turning to `COc1nc(-c2cc(C#N)ccc2Cl)cc2c1c(=O)n(Cc1ncn(C)n1)c(=O)n2Cc1cc(F)c(F)c(Cl)c1` [Compound I-0174], the IC50 worked out at 16 nM.

As to `Cn1cnc(Cn2c(=O)c3c(Cl)cc(-c4cc(C#N)ccc4Cl)cc3n(Cc3cc(F)c(F)c(Cl)c3)c2=O)n1` [Compound I-0175], the IC50 is less than 100 nM.

As to `COc1nc(-c2cc(C#N)ccc2Cl)cc2c1c(=O)n(Cc1ncn(C)n1)c(=O)n2Cc1cc(F)c(F)c(F)c1` [Compound I-0176], the IC50 was 33 nM.

Regarding `Cn1cnc(Cn2c(=O)c3c(=O)[nH]c(-c4cc(C#N)ccc4Cl)cc3n(Cc3cc(F)c(F)c(F)c3)c2=O)n1` [Compound I-0177], the IC50 amounted to 34 nM.

For `COc1nc(-c2cc(C#N)ccc2Cl)cc2c1c(=O)n(-c1cncc(Cl)c1)c(=O)n2Cc1cc(F)c(F)c(F)c1` [Compound I-0178], the IC50 is less than 100 nM.

Take `COc1cc(-c2cc(CC(=O)NC3CCN(C)CC3)ccc2Cl)cc2c1c(=O)n(-c1cncc(Cl)c1)c(=O)n2Cc1cc(Cl)ccc1C` [Compound I-0187]: the IC50 is 5 nM.

Regarding `COc1cc(-c2cc(S(C)(=N)=O)ccc2Cl)cc2c1c(=O)n(-c1cncc(Cl)c1)c(=O)n2Cc1cc(F)c(F)c(F)c1` (stereo not shown) [Compound I-0188], the IC50 amounted to 5.8 nM.

Consider `COc1cc(-c2cc(CC(=O)NCCN(C)C)ccc2Cl)cc2c1c(=O)n(-c1cncc(Cl)c1)c(=O)n2Cc1cc(Cl)ccc1C` [Compound I-0189], for which the IC50 came out at 7.1 nM.

With `COc1cc(-c2cc(CC(N)=O)ccc2Cl)cc2c1c(=O)n(-c1cncc(Cl)c1)c(=O)n2Cc1cc(Cl)ccc1C` [Compound I-0191], the IC50 was less than 100 nM.
